Laboratory results as given in PMC5341858, “Molecular regulation of apoptotic machinery and lipid metabolism by mTORC1/mTORC2 dual inhibitors in preclinical models of HER2+/PIK3CAmut breast cancer” (Oncotarget, 2016).

Tests used:
[1] = test system: MDA-MB-453 cells; assay: Glucose-to-lipid conversion (de novo lipid synthesis); format: cell-based; details: 4 h, saturating dose (5 μM MTI-31, 1 μM rapamycin)
Description: (§1) Cellular glucose-to-lipid conversion was measured as described. Briefly, cells were pretreated with inhibitors for 2 h, incubated for 2 h in medium containing 2 μCi/mL D-[1-14C] glucose (PerkinElmer, NEC043X001MC). Total lipids were extracted twice with 300 μL hexane:isopropanol (3:2; vol:vol). Cell debris was carefully removed by centrifugation at 14,000 rpm for 5 min using a microcentrifuge. Radioactive lipids were dried, redissolved with 100 μL of chloroform and determined by liquid scintillation counting. A duplicate assay plate without radioactive glucose label was used to count the number of cells per treatment. Glucose to total lipid conversion rate is the radioactive counts from the extracted lipid normalized by the number of cells per hour of ^14C-glucose incubation. For acetyl-CoA assay, cells grown in 96-well plates were washed and lysed in 40 μL/well using lysis buffer. Cell lysates were transferred to V-bottom plates, cleared by centrifugation. 30 μL of the cleared cell lysates were subjected to acetyl-CoA measurement using an acetyl-CoA assay kit (Sigma, MAK-039) following manufacturer's assay manual. Duplicate assay plates were used to count the number of cells per treatment for normalization in determining cellular acetyl-CoA levels.

[2] = test system: MDA-MB-231 cells; assay: as above; format: cell-based; details: similar treatment, 4 h saturating dose
Description: as §1

CNC(=O)c1cccc(-c2ccc3c(N4C5CCC4COC5)nc(N4CCOC[C@@H]4C)nc3n2)c1 [MTI-31]
suppression of de novo lipid synthesis (14C-glucose-to-lipid conversion rate) [1]: 70%
effect on de novo lipid synthesis [2]: did not significantly reduce lipid synthesis
